Assay results reported in PMC11399425, “Tricyclic and tetracyclic antidepressants upregulate VMAT2 activity and rescue disease-causing VMAT2 variants” (Neuropsychopharmacology, 2024).

Legend:
[1] = molecular target: T1, VMAT2 (Mus musculus, UniProt Q8BRU6); assay: FFN206 uptake upregulation assay (18-h treatment, washout) in HEK-VMAT2 cells; format: cell-based; parameters: The full-length mouse and human SLC18A2 cDNAs encoding VMAT2 were cloned into pcDNA3.1 vectors; expressed in transfected cells; conditions: for Emax, % vehicle (mean ± SEM) / EC50: 18 h treatment followed by washout; for Emax, % vehicle (mean ± SEM): at Emax concentration; for Emax concentration: 18 h treatment, concentration giving Emax; for Hill slope (upregulation): 18 h upregulation curve fit; for Effect on VMAT2 activity, sustained: 10 μM, washout, vs vehicle; for Effect on VMAT2 activity, sustained / Effect on VMAT2 activity, sustained, known VMAT2 inhibitors: 18 h; for EC50: HEK-VMAT2 cells, read-out: EC50 (95% CI), VMAT2 upregulation; for Effect on VMAT2 activity, sustained, known VMAT2 inhibitors: increasing concentrations (Fig. S5)
[2] = molecular target: T1, VMAT2; assay: FFN206 uptake inhibition assay (30-min treatment) in HEK-VMAT2 cells; conditions: for Hill Slope (inhibition): 30 min inhibition curve fit; for Imax, % vehicle (mean ± SEM): VMAT2 activity at 100 μM compound, 30 min, normalized to vehicle (100%)
Description: We detected colocalization of VMAT2 and FFN206 using epifluorescence microscopy (Fig. S2) and used FFN206 uptake to measure VMAT2 activity in HEK cells stably expressing mouse VMAT2 (HEK-VMAT2). We tested seven tricyclics and three tetracyclics that are approved for clinical use in humans (Fig. 1A, B). […] Next, we assessed the potency of the tricyclics and tetracyclics using dose response experiments.
For the inhibition assay, HEK-VMAT2 cells were seeded at 50,000 cells/well on day 1. […] Cells were incubated with FFN206 for 1hr. FFN206 uptake was terminated by aspirating the medium, and cells were washed twice with 200μL warm PBS (supplemented with 500μM MgCl2 and 900μM CaCl2), each with 5min incubation. Subsequently, 100μL warm PBS was added to each well and the plate was read with a Mithras LB 940 plate reader at excitation/emission filters 380nm/450nm.

[3] = molecular target: T2, SERT (SLC6A4) (Homo sapiens, UniProt P31645); format: cell-based
T2 construct: expressed in transfected cells
Description: (§1) HEK293, HEK-VMAT2, HEK-YFP-DAT, and HEK-SERT cells were seeded at 5,000,000 cells/dish density in 10 cm tissue culture dishes. […] On the collection day, cells were washed once with cold PBS, then harvested with 2 mL Tris-EDTA buffer (25 mM Tris-HCl, 1 mM EDTA, pH 7.4) containing freshly-added protease/phosphatase inhibitors. The cells were mechanically lysed on ice by Polytron (medium setting, 5 sec on, 5 sec off, two cycles), and centrifuged at 800 x g for 10 min at 4 °C to pellet the nuclear fraction. […] The supernatant was discarded and the pellet containing membrane proteins was resuspended with Tris-EDTA buffer with inhibitors and 0.2% SDS by vortexing until the pellet was dissolved. The protein concentration was determined using Pierce™ BCA Protein Assay Kits following the manufacturer’s instructions.
Electrophoretic resolution was done in MOPS-SDS running buffer (50 mM MOPS, 50 mM Tris, 0.1% SDS, 1 mM EDTA). The proteins were transferred onto a […] PVDF membrane and stained using Revert™ 700 Total Protein Stain. The resolved proteins were visualized at 700 nm on an Odyssey® M imaging system (LI-COR, Inc.). […] The blots were visualized under 700 nm and 800 nm channels on the Odyssey® M imaging system (LI-COR, Inc.) and quantified using ImageJ and Empiria Studio.

[4] = tested on: monoamine transporter mRNA (VMAT2, VMAT1, DAT, NET, SERT); assay: RT-qPCR of endogenous monoamine transporters mRNA in BE(2)-M17 cells; format: cell-based, human; conditions: 10 μM, 18 h
Description: (§3) HEK-VMAT2, HEK-YFP-DAT, HEK-SERT, and BE(2)-M17 cells were seeded in 6-well tissue culture plates at 1,000,000 cells/well density. […] On the third day, medium was aspirated and the cells were directly collected in 1 mL/well of Trizol for RNA isolation [26]. RNA was reverse-transcribed into cDNA using the SuperScript™ IV VILO™ Master Mix with ezDNase™ Enzyme. Quantitative RT-qPCR was performed using PowerUp™ SYBR™ Green Master Mix and QuantStudio 3 Real-Time PCR System (ThermoFisher Scientific). The relative fold of gene expression was calculated as 2^-(∆∆Ct) normalized to GAPDH levels.

[5] = tested on: hDAT mRNA; assay: RT-qPCR of hDAT in HEK-YFP-DAT cells; format: cell-based, human; conditions: 100 μM, 18 h, HEK293 cells
Description: as §3

[6] = tested on: mVMAT2 mRNA; assay: RT-qPCR of mVMAT2 in HEK-VMAT2 cells; conditions: 100 μM, 18 h, HEK293 cells
Description: as §3

[7] = molecular target: DAT (SLC6A3) (Homo sapiens, UniProt Q01959); conditions: 100 μM, 18 h, HEK-YFP-DAT cells
Description: as §1
(§2) Electrophoretic resolution was done in MOPS-SDS running buffer (50 mM MOPS, 50 mM Tris, 0.1% SDS, 1 mM EDTA). The proteins were transferred onto a […] PVDF membrane and stained using Revert™ 700 Total Protein Stain. The resolved proteins were visualized at 700 nm on an Odyssey® M imaging system (LI-COR, Inc.). […] For the VMAT2 blot, the membrane was incubated with rabbit serum (in 50% glycerol) containing anti-mVMAT2 antibody against C-terminal peptide ([…]) at 1:3000 dilution overnight at 4 °C [24]. For the YFP-DAT blot, the membrane was incubated with rabbit-anti-GFP antibody (A11122) at 1:1500 dilution for 2 h at room temperature. For the SERT blot, the membrane was incubated with rabbit anti-SERT antibody (A104336, Antibodies.com) at 1:1000 dilution overnight at 4 °C. IRDye® 800CW Goat anti-Rabbit IgG secondary antibody at 1:7000 dilution in 3% non-fat milk in TBST was used for all blots. The blots were visualized under 700 nm and 800 nm channels on the Odyssey® M imaging system (LI-COR, Inc.) and quantified using ImageJ and Empiria Studio.

[8] = molecular target: T1, VMAT2; conditions: 100 μM, 18 h, HEK-VMAT2 cells
Description: as §1, §2

[9] = tested on: nine missense VMAT2 BMVTD variants; assay: FFN206 uptake of transiently transfected VMAT2 BMVTD variants in HEK293T cells; format: cell-based, human; conditions: 50 μM, 18 h, total FFN206 fluorescence
[10] = tested on: hSERT mRNA; assay: RT-qPCR of hSERT in HEK-SERT cells; conditions: 100 μM, 18 h, HEK293 cells
Description: as §3

[11] = ref PubChem; cited from earlier work
[12] = molecular target: VMAT2 P387L (Homo sapiens, UniProt Q05940, P387L); conditions: 18 h, increasing concentration
[13] = molecular target: VMAT2 (Homo sapiens, UniProt Q05940); conditions: 10 μM, 18 h, BE(2)-M17 cells
[14] = molecular target: VMAT2 P237H (Homo sapiens, UniProt Q05940, P237H); conditions: 18 h, increasing concentration

SMILES | Emax, % vehicle (mean ± SEM) [1] [% vehicle] | Emax concentration [1] [µM] | Hill slope (upregulation) [1] | IC50 [2] [µM] | Hill Slope (inhibition) [2] | Imax, % vehicle (mean ± SEM) [2] [% vehicle] | Effect on VMAT2 activity, sustained [1] | EC50 [1] [µM] | other results
CNCCCN1c2ccccc2CCc2ccccc21 [DES, Desipramine] | 177.59 ± 5.96 | 56.23 | 1.530 | 16.2 | –1.176 | 7.51 ± 1.28 | significant upregulation of VMAT2 activity | 17.1 | 
CN(C)CCCN1c2ccccc2CCc2ccccc21 [IMI, Imipramine] | 245.36 ± 15.06 |  | 1.505 | 17.3 | –1.195 |  | significant upregulation of VMAT2 activity | 29.9 | Total SERT protein [3]: significantly increased total SERT protein; Monoamine transporter mRNA (including VMAT2) [4]: no upregulation in any monoamine transporter mRNA; DAT mRNA expression [5]: elevated mRNA expression; Emax, % vehicle (mean ± SEM) ([1]; listed as imipramine): 245.36 % vehicle; VMAT2 mRNA expression [6]: elevated mRNA expression; Total DAT protein [7]: did not affect total DAT protein; Total VMAT2 protein [8]: significant increase; Activity of all VMAT2 variants [9]: significant upregulation of activity of all VMAT2 variants; SERT mRNA expression [10]: elevated mRNA expression
CN1CCN2c3ccccc3Cc3ccccc3C2C1 (stereo not shown) [MIA, Mianserin] |  |  |  |  |  |  |  |  | logP [11]: 3.4; Variant VMAT2 activity, dose-response [12]: dose-dependent upregulation; Endogenous VMAT2 activity ([13]; followed by washout): 270 % of vehicle; Endogenous VMAT2 activity without washout ([13]; without drug washout): significant upregulation of endogenous VMAT2 activity; Variant VMAT2 activity, dose-response [14]: dose-dependent upregulation; Total DAT protein [7]: did not affect total DAT protein; Activity of all VMAT2 variants [9]: significant upregulation of activity of all VMAT2 variants
CNCCC=C1c2ccccc2CCc2ccccc21 [NOR, Nortriptyline] | 207.90 ± 18.90 | 31.62 | 0.915 | 13.3 | –0.920 | 8.73 ± 1.11 | significant upregulation of VMAT2 activity |  | 
COc1cc2c(cc1OC)C1CC(=O)C(CC(C)C)CN1CC2 (stereo not shown) [TBZ, tetrabenazine] |  |  |  | 0.037 | –0.598 | 9.51 ± 0.67 |  |  | Effect on VMAT2 activity, sustained, known VMAT2 inhibitors [1]: no upregulation of VMAT2 activity was observed
O=C(CCCN1CCC(O)(c2ccc(Cl)cc2)CC1)c1ccc(F)cc1 [haloperidol] |  |  |  |  |  |  |  |  | Effect on VMAT2 activity, sustained, known VMAT2 inhibitors [1]: no upregulation of VMAT2 activity was observed

Second part, led by results:

Emax, % vehicle (mean ± SEM) [1] [% vehicle] | Emax concentration [1] [µM] | Hill slope (upregulation) [1] | IC50 [2] [µM] | Hill Slope (inhibition) [2] | Imax, % vehicle (mean ± SEM) [2] [% vehicle] | SMILES | Effect on VMAT2 activity, sustained [1] | EC50 [1] [µM] | other results
237.26 ± 7.63 | 31.62 | 1.728 | 12.4 | –1.173 | 8.47 ± 1.88 | CN(C)CCC=C1c2ccccc2CCc2ccccc21 [AMI, Amitriptyline] |  |  | 
175.11 ± 7.95 | 100 | 2.486 | 170 | –0.978 | 63.27 ± 7.1 | CN1CCN2c3ncccc3Cc3ccccc3C2C1 (stereo not shown) [MIR, mirtazapine] |  | 35.1 | 
223.92 ± 11.02 | 31.62 | 0.777 | 4.35 | –1.042 | 2.93 ± 0.24 | CNCCCC1c2ccccc2C=Cc2ccccc21 [PRO, Protriptyline] | significant upregulation of VMAT2 activity |  | 
194.63 ± 22.32 | 100 | 1.939 | 13.1 | –1.173 | 5.87 ± 1.33 | CC(CN(C)C)CN1c2ccccc2CCc2ccccc21 (stereo not shown) [TRI, Trimipramine] | significant upregulation of VMAT2 activity | 31.1 | 
